{"source": "patent US20190255040A1", "about": "“COMPOSITION AND METHOD FOR TOPICAL JS-K AS THERAPY FOR ACTINIC KERATOSIS” (JSK THERAPEUTICS, INC, priority 2018, published 2019)", "key": {"[1]": {"test_system": "human squamous skin carcinoma Cells (HatCat cells)", "assay": "Suppression of the growth in culture of human squamous skin carcinoma cells", "format": "cell-based", "details": "growth over a two-day period (FIG. 1), read-out: IC50 for suppressing growth of human squamous skin carcinoma cells", "procedure": "FIG. 1 is a scatter plot illustrating the growth of human squamous skin carcinoma cells (HatCat 5K-Cells [10 μM]) over a two-day period;\nReferring to FIG. 1, JS-K at 12 mg/mL in […] of acetone was active in suppressing the growth in culture of human squamous skin carcinoma Cells (HatCat cells) with IC50 concentrations <1000 nM, compared to no effect from dimethylsulfoxide (DMSO) or P1223 pluronic micellesAfd."}, "[2]": {"test_system": "UV-induced skin damage in SKH1 mice", "assay": "Animal efficacy for UV damage: UVB-exposed SKH1 mice, topical treatment, skin histology", "format": "in vivo", "procedure": "Eight week-old female SKH1 mice were used. There were 5 mice in the control (no treatment, no UV) group and 10 mice in each treatment group. Treated mice all received one exposure of 600 Joules/m2 of UVB.\nImmediately after UVB treatment, mice in each group were treated as follows: 200 uL of acetone only; JS-K at a concentration of 12 mg/mL in 200 uL of acetone; JS-K at a concentration of 6 mg/mL in 200 uL of acetone. Treatments were started immediately after UVB exposure and given twice (8 hours apart) on Day 1 and Day 2. On Day 3, mice were sacrificed and skin collected for histologic analysis.\nH&E staining was used (FIG. 2A) to evaluate the count of Sunburn Cells, which are keratinocytes undergoing UV-induced apoptosis. […] The differences with controls were statistically significant for the higher dose of JS-K (12 mg/mL).\n8-OG is a marker of oxydative damage."}}}
{"smiles": "CCOC(=O)N1CCN(/[N+]([O-])=N/Oc2ccc([N+](=O)[O-])cc2[N+](=O)[O-])CC1", "note": "[JS-K, O2-(2,4-dinitrophenyl)1-[(4-ethoxycarbonyl)piperazin-1-yI]diazen-1-ium-1,2-diolate]", "values": [{"measurement": "IC50", "setting": "[1]", "result": "< 1000", "unit": "nM"}, {"measurement": "count of Sunburn Cells (keratinocytes undergoing UV-induced apoptosis), H&E staining", "setting": "[2]; 600 Joules/m2 UVB, JS-K 6 or 12 mg/mL in 200 uL acetone topically twice daily Day 1-2, skin Day 3, significant only for 12 mg/mL", "result": "moderate decrease in the number of Sunburn Cells with a dose effect"}, {"measurement": "percent of cells positive for 8-oxoguanine (8-OG), immunohistochemistry", "setting": "[2]; 600 Joules/m2 UVB, JS-K 6 or 12 mg/mL in 200 uL acetone twice daily Day 1-2, dose effect, significant for both doses", "result": "fewer cells from the mice treated with JS-K were positive for 8-OG"}, {"measurement": "epidermal thickness of UV-exposed skin", "setting": "[2]; 600 Joules/m2 UVB, JS-K 6 or 12 mg/mL, 12 mg/mL markedly greater effect than 6 mg/mL", "result": "dose dependent JS-K effect on epidermal thickness"}, {"measurement": "toxicity, skin irritation, skin ulceration or infection with the treatments", "setting": "[2]; topical JS-K 6 or 12 mg/mL in 200 uL acetone twice daily Day 1-2", "result": "no evidence of toxicity, skin irritation, skin ulceration, or infection"}]}
